Molecular target: T1, PPARγ (Homo sapiens, UniProt P37231)
T1 construct: expressed in transfected cells; host or cells: HEK293T
T1 sequence (P37231 238-503 limits assumed): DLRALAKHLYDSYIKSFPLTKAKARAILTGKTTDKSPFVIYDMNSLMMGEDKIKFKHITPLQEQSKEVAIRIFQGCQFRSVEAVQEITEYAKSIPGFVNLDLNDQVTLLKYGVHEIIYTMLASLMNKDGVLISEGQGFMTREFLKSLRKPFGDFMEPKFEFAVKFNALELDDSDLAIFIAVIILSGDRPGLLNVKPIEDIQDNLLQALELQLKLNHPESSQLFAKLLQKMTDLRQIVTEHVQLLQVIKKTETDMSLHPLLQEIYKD
Experiment: Gal4 hybrid reporter gene assay PPARγ (HEK293T)
Format: cell-based
Conditions: relative activation, n=2
Description: Isothermal titration calorimetry (ITC) confirmed binding of 8 and 19 to the recombinant proteins of both FXR LBD and LTA4H (Figure 1).
Figure 2 (a) Selectivity profiles of 8 and 19 over related nuclear receptors. […] (b) Activity of 8 and 19 in a WST‐1 cell viability assay in HepG2 cells. Data are mean±S.E.M., n=4. […] Data are mean±S.E.M. relative FXR activation (%), n≥3. […] Data are mean±S.E.M. relative LTA4H inhibition (%), n=3.
Hybrid reporter gene assays. Nuclear receptor modulation was determined in hybrid reporter gene assays using the Gal4‐fusion receptor plasmids pFA‐CMV‐hPPARα‐LBD,[39] pFA‐CMV‐hPPARγLBD,[39] pFA‐CMV‐hPPARδ‐LBD,[39] pFA‐CMV‐hLXRα‐LBD,[40] pFACMV‐hLXRβ‐LBD,[40] pFA‐CMV‐hRXRα‐LBD,[41] pFA‐CMV‐hRARα‐LBD,[41] pFA‐CMV‐hVDR‐LBD[41] and pFA‐CMV‐hCAR‐LBD[41] coding for the hinge region and ligand binding domain (LBD) of the canonical isoform of the respective nuclear receptor, pFR‐Luc (Stratagene) as reporter plasmid and pRL‐SV40 (Promega) for normalization of transfection eﬃciency. HEK293T cells were grown in DMEM high glucose, supplemented with 10 % FCS, sodium pyruvate (1 mM), penicillin (100 U/mL), and streptomycin (100 μg/mL) at 37 °C and 5 % CO2, and seeded in 96‐well plates (2.5 ⋅ 10^4 cells/well) the day before transfection. […] Luminescence was measured with an Infinite M200 luminometer (Tecan Deutschland GmbH, Germany). […]

SMILES: O=C(O)c1cccc(NC(=O)c2ccc(OCCCc3ccccc3)cc2)c1 [compound 8]
- PPARγ activation: weak PPARγ activation

From PMC8453936, “Development and in vitro Profiling of Dual FXR/LTA4H Modulators” (Chemmedchem, 2021)
